Test [1] deals with H7 HA (recombinant) (Influenza A virus (A/Netherlands/219/2003(H7N7)), UniProt Q6VMK1).
The target of test [2] is H3 HA (recombinant) (Influenza A virus (A/Brisbane/10/2007(H3N2)), UniProt A8W8K8).
For test [3], the target named is H7 HA (recombinant) (Influenza A virus (A/Netherlands/219/2003(H7N7)), UniProt Q6VMK1). The source holds these as a separate data set.

Each structure is given as a SMILES string.

From article PMC3806803 (PLoS ONE, 2013) come the findings set out here.

On to `CC(C)(C)c1cc(O)ccc1O` [TBHQ], for which the “midpoint pH of proteolysis susceptibility with TBHQ” value in test [1] was ~ 4.6 pH. In addition, the “WaterLOGSY and STD NMR; competition with antibody F49” value in test [2] is on record as “NMR experiment clearly indicates that TBHQ binds to H3 HA”; in test [3], “TBHQ binds to H7 HA and, based on the competition NMR experiment”.
